Measured values as given in paper PMC8764033, “Single-molecule analysis of specificity and multivalency in binding of short linear substrate motifs to the APC/C” (Nature Communications, 2022).
Where a SMILES comes first, the peptide text is derived from it.

Biological target: T1, Cdh1 WD40 domain (yeast) (Saccharomyces cerevisiae, UniProt P53197)
T1 construct: the WD40 domains of yeast Cdh1 (aa 241–550; pNH144); 2xStrep-Tag II (N); made in house; host or cells: Sf9 insect cells (baculovirus)
T1 sequence (P53197 241-550): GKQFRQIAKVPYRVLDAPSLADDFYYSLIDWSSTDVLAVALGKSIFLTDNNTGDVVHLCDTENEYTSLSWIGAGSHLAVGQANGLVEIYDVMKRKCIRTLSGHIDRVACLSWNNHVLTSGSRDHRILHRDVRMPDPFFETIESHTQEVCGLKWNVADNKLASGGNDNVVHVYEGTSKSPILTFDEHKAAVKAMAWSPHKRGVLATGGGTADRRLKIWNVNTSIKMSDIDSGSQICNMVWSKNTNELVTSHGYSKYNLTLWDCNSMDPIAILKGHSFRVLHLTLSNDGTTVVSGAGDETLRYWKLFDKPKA
Experiment: Fluorescence anisotropy, 10 nM Cy5-labeled degron peptide, yeast Cdh1 WD40
Type: binding
Settings: up to 30.6 µM Cdh1^WD40; for Kd: Fig. 1a, mean of 2 or 3 independent experiments, wash buffer B, 25 °C, dark peptide where named 100 µM unlabeled, read-out: KD (mean ± SE)
Source text: To determine the affinities of APC/C degrons for their binding sites, we first used conventional equilibrium binding assays of degron peptide binding to the activator. We used the baculovirus system to produce the WD40 domain of Cdh1 from the budding yeast Saccharomyces cerevisiae and measured fluorescence anisotropy to assess the binding of fluorescently-tagged degron peptides at increasing activator concentrations. The WD40 domain of yeast Cdc20 could not be expressed and was not studied.
Activators were cloned into the pFastBac HT A vector, with an N-terminal 2xStrep-Tag II. For some experiments, we constructed vectors for expression of the WD40 domains of yeast Cdh1 (aa 241–550; pNH144), human Cdh1 (aa 165–484; pNH164), or human Cdc20 (aa 162–484; pNH188). For SMOR, a C-terminal GFP tag was added. Bacmid plasmids are listed in Supplementary Table 3. Plasmids were transformed into DH10Bac cells, and purified Bacmid was used to transfect Sf9 cells to generate P1 baculovirus, which was used to generate P2 virus. SF9 cells were infected with the P2 virus for 48 h. Flash-frozen pellets were lysed by sonication or high-pressure homogenization in lysis buffer B (50 mM Tris-HCl pH 8, 150 mM KCl, 0.5 mM EDTA, 1 mM DTT, 10% Glycerol, EDTA-free protease inhibitor tablet, 1 µg ml^−1 pepstatin A). After the lysate was applied to the StrepTrap column, the column was washed with wash buffer B (lysis buffer B lacking protease inhibitors) and eluted in the same buffer containing 2.5 mM desthiobiotin.
Fluorescent degron peptides carried a C-terminal Cy5 label (CPC Scientific) and are listed in Supplementary Table 4. For anisotropy experiments, 10 nM fluorescent peptide was mixed with various concentrations of purified Cdh1 WD40 in wash buffer B at room temperature for 1 min, which we determined was sufficient for the binding reaction to reach equilibrium. Fluorescence was measured on a K2 Multifrequency Fluorometer at 25 °C. All Cy5-labeled peptides were excited with polarized light at 635 nm and emission was detected using a 700/75 nm bandpass filter (ET series, Chroma). […] Data were fitted to one-site equilibrium binding using GraphPad Prism version 8.4 to determine KD. Results were the same when peptide binding was measured in the buffer used in SMOR assays (buffer C, below).

Row | Molecule | Kd [µM] | binding to Cdh1 (in words)
1 | CC(C)C[C@H](NC(=O)[C@H](C)NC(=O)[C@H](CCCNC(=N)N)NC(=O)[C@H](CCCNC(=N)N)NC(=O)[C@@H]1CCCN1C(=O)[C@H](CCCCN)NC(=O)[C@H](CO)NC(=O)[C@H](CC(=O)O)NC(=O)[C@@H](N)CCC(N)=O)C(=O)N[C@H](C(=O)N[C@@H](CC(=O)O)C(=O)N[C@H](C(=O)N1CCC[C@H]1C(=O)N[C@H](C(=O)N[C@@H](CC(N)=O)C(=O)N[C@@H](CC(N)=O)C(=O)N[C@@H](CC(N)=O)C(=O)N1CCC[C@H]1C(=O)N[C@@H](CC(C)C)C(=O)N[C@@H](CO)C(=O)N[C@@H](CCC(N)=O)C(=O)N[C@@H](CCCCN)C(=O)O)C(C)C)C(C)C)[C@@H](C)O [Clb5 D box] (H-QDSKPRRALTDVPVNNNPLSQK-OH; N-terminus and C-terminus assumed) | > 30.6 | Neither D box displayed significant binding to Cdh1
2 | CC[C@H](C)[C@H](NC(=O)[C@H](CC(=O)O)NC(=O)[C@H](CO)NC(=O)[C@H](C)NC(=O)[C@H](C)NC(=O)[C@H](C)NC(=O)[C@H](C)NC(=O)[C@H](CCCCN)NC(=O)[C@@H]1CCCN1C(=O)[C@H](CCCCN)NC(=O)[C@H](CCC(N)=O)NC(=O)[C@@H](N)CCC(=O)O)C(=O)N[C@H](C(=O)N[C@@H](C)C(=O)N[C@@H](CO)C(=O)N[C@@H](Cc1ccccc1)C(=O)N[C@@H](CC(N)=O)C(=O)N[C@@H](CCCCN)C(=O)N[C@@H](CCSC)C(=O)N[C@@H](CC(N)=O)C(=O)N[C@@H](CCCCN)C(=O)O)[C@@H](C)O [Hsl1 D box mutant] (H-EQKPKAAAASDITASFNKMNK-OH; N-terminus and C-terminus assumed) | > 30.6 | Binding was abolished
3 | CC[C@H](C)[C@H](NC(=O)[C@H](Cc1ccccc1)NC(=O)[C@H](CO)NC(=O)[C@H](CCCCN)NC(=O)[C@H](CO)NC(=O)[C@H](CCCNC(=N)N)NC(=O)[C@H](CC(N)=O)NC(=O)[C@H](CC(N)=O)NC(=O)[C@H](CC(=O)O)NC(=O)[C@H](CCCCN)NC(=O)[C@H](C)NC(=O)[C@H](C)NC(=O)[C@H](CC(C)C)NC(=O)[C@@H]1CCCN1C(=O)[C@H](CC(C)C)NC(=O)[C@H](CCCNC(=N)N)NC(=O)CNC(=O)[C@H](CCC(N)=O)NC(=O)[C@H](CCC(N)=O)NC(=O)[C@H](CCC(N)=O)NC(=O)[C@H](C)N)C(=O)N[C@@H](CCCCN)C(=O)O [ySecurin D box] (H-AQQQGRLPLAAKDNNRSKSFIK-OH; N-terminus and C-terminus assumed) | > 30.6 | Neither D box displayed significant binding to Cdh1
4 | SKAAQFMLYEETAEERNI-K(Cy5) [Acm1 ABBA, Cy5-labeled Cdh1-specific ABBA motif from pseudosubstrate yeast protein Acm1] | – | bound with very low affinity to Cdh1
